Assay results: patent US10472315B2, “Inhibitors of methionine aminopeptidases and methods of treating disorders” (THE JOHNS HOPKINS UNIVERSITY, priority 2009, dated 2019)
Values after ≈ are worked out from the molar mass of the structure shown. Values joined by “and” are separate entries in the source; they are usually repeats but may differ in a detail not shown here. Equal entries are not always repeated. “Also recorded” adds a separate entry of the source. Where two headings read alike, the source gives them in different places.

Legend:
MtMetAP1a = target: T1, MtMetAP1a (Mycobacterium tuberculosis, UniProt P9WK21); assay: Coupled methionine-proline aminopeptidase assay (Met-Pro-pNA), IC50 determination; format: biochemical, M. tuberculosis; settings: for inhibition of MtMetAP1a, in words: statement on MtMetAPs / both enzymes
T1 construct: made in house; host or cells: E. coli BL21 (DE3)
Procedure: (§1) Determination of IC50 of Inhibitors of MtMetAPs and Clustering of Structural Classes of Inhibitors (ASDI-ISIS)
(§2) We determined the concentration needed for 50% inhibition in 96-well plates at final concentrations ranging from 100 μM-300 nM (for 81 compounds that were available in larger quantities). The total reaction volume was 50 μL and each reaction contained each MtMetAP1 respectively and 40 mM Hepes buffer (p.H 7.5), 100 mM NaCl, 100 μg/mL BSA, 0.1 U/mL ProAP, 1.5 μM CoCl2, 600 μM substrate (Met-Pro-pNA). The enzyme was pre-incubated with compounds for 20 min at room temperature followed by addition of substrate. The reaction was incubated at room temperature for 30 min and monitored at 405 nm on a spectrophotometer. The background hydrolysis was corrected and the data was fitted against the sigmoidal-dose response (variable slope) equation using GraphPad Prism software.

M. tuberculosis H37Rv = assay: Minimum inhibitory concentration in replicating M. tuberculosis; format: cell-based; settings: for MIC: Mycobacterium tuberculosis, H37RV, 336 h, read-out: M.I.C. (μg/mL) M. tuberculosis
MtMetAP1c = target: T2, MtMetAP1c (Mycobacterium tuberculosis, UniProt P9WK19); assay: Coupled methionine-proline aminopeptidase assay (Met-Pro-pNA), IC50 determination; format: biochemical, M. tuberculosis; settings: for inhibition of MtMetAP1c, in words: statement on MtMetAPs / both enzymes
T2 construct: made in house; host or cells: E. coli BL21
Procedure: as §1, §2

[1] = test system: Aged-cultured M. tuberculosis H37Ra; assay: microbe, parasite or virus in culture; format: cell-based; settings: for MIC: Mycobacterium tuberculosis, H37RA, read-out: M.I.C. (μg/mL) Aged-cultured M. tuberculosis
[2] = recombinant enzyme, 1.5 μM CoCl2, 600 μM Met-Pro-pNA, read-out: IC50 (μM) MtMetAP1a

T1 sequence (P9WK21 whole entry): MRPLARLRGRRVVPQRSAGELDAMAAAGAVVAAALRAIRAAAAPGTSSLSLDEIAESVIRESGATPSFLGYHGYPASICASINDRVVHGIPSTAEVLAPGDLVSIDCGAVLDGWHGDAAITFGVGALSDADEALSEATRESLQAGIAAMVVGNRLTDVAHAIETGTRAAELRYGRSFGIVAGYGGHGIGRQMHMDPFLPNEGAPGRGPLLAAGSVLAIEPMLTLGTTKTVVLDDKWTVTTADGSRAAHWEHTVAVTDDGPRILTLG
T2 sequence (P9WK19 whole entry): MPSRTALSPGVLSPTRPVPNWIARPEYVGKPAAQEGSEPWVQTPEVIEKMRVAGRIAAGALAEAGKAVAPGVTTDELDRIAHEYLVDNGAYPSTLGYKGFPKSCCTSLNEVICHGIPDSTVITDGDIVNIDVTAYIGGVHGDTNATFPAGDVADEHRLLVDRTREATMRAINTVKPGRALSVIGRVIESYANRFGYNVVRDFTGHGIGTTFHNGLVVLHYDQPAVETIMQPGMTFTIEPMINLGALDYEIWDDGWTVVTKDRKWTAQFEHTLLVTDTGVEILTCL

In the case of `CN(C)c1ccc(NC2=C(Cl)C(=O)c3ccccc3C2=O)cc1` [Compound 15], the IC50 (MtMetAP1a; [2]) is reported as > 30 µM.

In the case of `O=C1C(Cl)=C(Nc2ccccc2)C(=O)c2ccccc21` [Compound 16], the IC50 (MtMetAP1a; [2]) is reported as > 50 µM.

With `O=C1C=CC(=O)c2c(O)cccc21` [Compound 23] the IC50 (MtMetAP1a; [2]) was > 50 µM.

In the case of `O=C1C(Oc2ccc(F)cc2)=C(Oc2ccc(F)cc2)C(=O)c2ccccc21` [Compound 21], the IC50 (MtMetAP1a; [2]) is reported as 4.93 ± 0.2 µM, the “increase in MIC values relative to compounds 4 and 20” value (M. tuberculosis H37Rv) is reported as “about a two-fold increase” and the MIC (M. tuberculosis H37Rv) is reported as > 25 µg/mL.

In the case of `O=C1C(Cl)=C(NCc2ccc(Cl)cc2)C(=O)c2ccccc21` [Compound 6], the IC50 (MtMetAP1a; [2]) is reported as > 100 µM.

With `O=C(NC1=C(Cl)C(=O)c2ccccc2C1=O)c1cc(C(F)(F)F)cc(C(F)(F)F)c1` [Compound 27] the IC50 (MtMetAP1a; [2]) was > 50 µM.

`COC(=O)c1ccc(NC2=C(Cl)C(=O)c3ccccc3C2=O)cc1` [Compound 14] was tested, and the IC50 (MtMetAP1a; [2]) was > 30 µM.

For `ON=CNc1nc2c(s1)CCOc1cc3c(cc1-2)OCO3` [Amidoxime 58], the IC50 (MtMetAP1c; read-out: inhibitor of MtMetAP1c (potency in text)) was 0.06 µM, the “improvement over the lead-like hit 48, MtMetAP1c” value (MtMetAP1c; relative to amidoxime 48) was 7 fold and the “inhibition of MtMetAP1c, in words” value (MtMetAP1c) was “very potent”. For the same compound, the IC50 (MtMetAP1a; read-out: inhibitor of MtMetAP1a (potency in text)) was 0.76 µM, the “improvement over the lead-like hit 48, MtMetAP1a” value (MtMetAP1a; relative to amidoxime 48) was 48 fold and the “inhibition of MtMetAP1a, in words” value (MtMetAP1a) was “very potent”.

With `O=C1C(Cl)=C(N2CCN(c3ccc(Cl)c(Cl)c3)CC2)C(=O)c2ccccc21` [Compound 9] the IC50 (MtMetAP1a; [2]) was > 100 µM.

In the case of `CC1=C(C/C=C(\C)CCCC(C)CCCC(C)C)C(=O)c2ccccc2C1=O` (centres unmarked) [Compound 28], the IC50 (MtMetAP1a; [2]) is reported as > 50 µM.

`O=C1C=C(O)C(=O)c2ccccc21` [Compound 25] was tested, and the IC50 (MtMetAP1a; [2]) was > 50 µM.

`Cc1cccc(NC2=C(Cl)C(=O)c3ccccc3C2=O)c1` [Compound 17] showed an IC50 (MtMetAP1a; [2]) of 18.6 ± 6.1 µM.

For `NC1=C(Cl)C(=O)c2ccccc2C1=O` [Compound 5], the IC50 (MtMetAP1a; [2]) was > 100 µM.

For `O=C1C(Cl)=C(N2CCN(c3cccc(Cl)c3)CC2)C(=O)c2ccccc21` [Compound 8], the IC50 (MtMetAP1a; [2]) was > 100 µM.

With `O=C1C(Cl)=C(Nc2cccc(C(F)(F)F)c2)C(=O)c2ccccc21` [Compound 12] the IC50 (MtMetAP1a; [2]) was > 30 µM.

`CCCN(CCC)C1=C(Cl)C(=O)c2ccccc2C1=O` [Compound 26] was tested, and the IC50 (MtMetAP1a; [2]) was > 50 µM.

In the case of `O=C1C(Cl)=C(Nc2cccc(F)c2)C(=O)c2ccccc21` [Compound 13], the IC50 (MtMetAP1a; [2]) is reported as > 30 µM.

In the case of `Cc1ccc(Cl)cc1N1CCN(C2=C(Cl)C(=O)c3ccccc3C2=O)CC1` [Compound 10], the IC50 (MtMetAP1a; [2]) is reported as > 100 µM.

`CC1=CC(=O)c2ccccc2C1=O` [Compound 29] was tested, and the IC50 (MtMetAP1a; [2]) was > 50 µM.

`Oc1c(Br)cc(Cl)c2cccnc12` [Compound 69, 7-bromo-5-chloroquinolin-8-ol] was tested, and the “inhibition of MtMetAP1c, in words” value (MtMetAP1c) was “low micromolar range; also recorded: most potent” and the “inhibition of MtMetAP1a, in words” value (MtMetAP1a) was “low micromolar range; also recorded: most potent”.

In the case of `O=C1C(Cl)=C(N2C(=O)c3c(Cl)c(Cl)c(Cl)c(Cl)c3C2=O)C(=O)c2ccccc21` [Compound 2], the MIC [1] is reported as 23.8 µg/mL (≈ 50.1 µM), the IC50 (MtMetAP1a; [2]) is reported as 4 ± 0.3 µM and the “increase in MIC values relative to compounds 4 and 20” value (M. tuberculosis H37Rv) is reported as “about a two-fold increase”. It also gave an MIC (M. tuberculosis H37Rv) of 25 µg/mL (≈ 52.6 µM).

For `O=C1C(Cl)=C(Cl)C(=O)c2ccccc21` [Compound 4, 2,3-dichloro-1,4-naphthoquinone], the “effectiveness against the aged-cultured form compared with the replicating form” value [1] was “equally effective”, the MIC [1] was 5.7 to 11.4 µg/mL (≈ 25.1 to 50.2 µM) and the IC50 (MtMetAP1c) was 6.6 ± 1.2 µM. The IC50 (MtMetAP1a) was 3.3 ± 0.3 µM, the “M.I.C. (μg/mL) M. tuberculosis” value (M. tuberculosis H37Rv) was 10 µg/mL and the MIC (M. tuberculosis H37Rv) was 10 µg/mL (≈ 44 µM).

For `O=C1C(Br)=C(Br)C(=O)c2ccccc21` [Compound 20, 2,3-dibromo-1,4-naphthoquinone], the “effectiveness against the aged-cultured form compared with the replicating form” value [1] was “equally effective”, the IC50 (MtMetAP1c; recombinant enzyme, 1.5 μM CoCl2, 600 μM Met-Pro-pNA, read-out: IC50 (μM) MtMetAP1c) was ~1 µM and 0.71 µM and the IC50 (MtMetAP1a; [2]) was ~1 µM and 1.14 µM. The MIC (M. tuberculosis H37Rv) was 10 to 25 µg/mL (≈ 31.7 to 79.1 µM).

With `O=C1C(Cl)=C(Oc2ccc(F)cc2)C(=O)c2ccccc21` [Compound 22] the IC50 (MtMetAP1a; [2]) was 7.58 ± 0.28 µM, the “increase in MIC values relative to compounds 4 and 20” value (M. tuberculosis H37Rv) was “about a two-fold increase” and the MIC (M. tuberculosis H37Rv) was > 25 µg/mL.

Compound `COc1ccc(NC2=C(Cl)C(=O)c3ccccc3C2=O)cc1` [Compound 18] has an IC50 (MtMetAP1a; [2]) of 15.9 ± 0.6 µM.

`O=C1C(Cl)=C(N2CCCCC2)C(=O)c2ccccc21` [Compound 3] was tested, and the MIC [1] was > 27.6 µg/mL, the IC50 (MtMetAP1a; [2]) was 8 ± 1.3 µM and the MIC (M. tuberculosis H37Rv) was > 25 µg/mL.

With `CN1CCN(C2=C(Cl)C(=O)c3ccccc3C2=O)CC1` [Compound 7] the IC50 (MtMetAP1a; [2]) was > 100 µM.

`CC1=CC(=O)c2c(O)cccc2C1=O` [Compound 24] was tested, and the IC50 (MtMetAP1a; [2]) was > 50 µM.

With `Cc1cc(C)cc(NC2=C(Cl)C(=O)c3ccccc3C2=O)c1` [Compound 19] the IC50 (MtMetAP1a; [2]) was 13.9 ± 1 µM.

For `COc1ccc2c(c1)-c1nc(NC=NO)sc1CC2` [Amidoxime 49, N′-hydroxy-N-(8-methoxy-4,5-dihydronaphtho[1,2-d]thiazol-2-yl)formimidamide], the “potency against MtMetAP1c when compared to 48” value (MtMetAP1c; relative to amidoxime 48) was “two times less potent”.
